The values below are quoted from earlier work in patent US8784850B2, “Highly biocompatible dual thermogelling chitosan/glucosamine salt composition” (Oligo Médic Inc., priority 2010, dated 2014).

Series [1] deals with rabbits. To be noted: rabbit, in vivo, po.
The test system of series [2] is rats. The settings on record: ingestion of 300 to 2149 mg/kg of body weight.
Series [3] concerns human blood glucose metabolism. The settings on record: human studies.
The test system of series [4] is rats. To be noted: rat, in vivo, po.
Series [5] relates to patients with osteoarthritis pain. To be noted: oral administration, more than 3000 patients.
The next series deals with mice. To be noted: mouse, in vivo, po.
For series [6], the system named is rabbits. The settings on record: ingestion of 300 to 2149 mg/kg of body weight.
The subject of the next series is dogs. The settings on record: ingestion of 300 to 2149 mg/kg of body weight.
The test system of series [7] is outpatients with gonarthrosis.
[8] abbreviates: intra-articular, after treatment.
Setting [9] is: intra-articular, versus placebo.

Where only a bound is given, the exact number is not on record here.

`N[C@H]1C(O)O[C@H](CO)[C@@H](O)[C@@H]1O` (stereo partly drawn) [glucosamine]: the LD50 in the series with rabbits [1] is listed as over 8000 mg/kg; in the series with rats [4], “exceed 5000 mg/kg”; with mice, over 8000 mg/kg. Also, the blood glucose levels result in the series with rats [2], in the series on rabbits [6] and with dogs was “no effect on blood glucose levels” each time. The “plasma levels of glucose or insulin, insulin sensitivity or glucose oxidation” value in series [3] was “did not affect”. The “adverse effects on blood, urine or fecal parameters” value in series [5] was “no adverse effects”. The “effectiveness in treating osteoarthritis pain” value in series [5] was “moderately to highly effective”. Moreover, in series [7] (during and after treatment), the “local or general intolerance symptoms” value is on record as “no local or general intolerance symptoms”. Further, the “angle of joint flexion” value in series [7] (setting [8]) was “substantially increased”. Moreover, in [7] (setting [8]), the knee swelling result was “did not decrease significantly”. Besides, the active mobility result in [7] (setting [9]) is listed as “a more favourable trend after glucosamine administration”. Moreover, the pain-free patients result in series [7] (setting [9]) is “significantly more pain-free patients”. Besides, the pain result in series [7] (one intra-articular injection per week for five weeks, versus placebo) is reported as “reduced pain to a significantly greater extent than did placebo”.
